# Test results reported in patent publication US9682141B2, “Combination of kinase inhibitors and uses thereof” (INTELLIKINE LLC, priority 2011, dated 2017).
# Experiments:
# Format in all cases: biochemical
# PI3K γ = PI3K γ (Homo sapiens (Human), UniProt P48736); assay: PI 3-Kinase (human) HTRF assay, p110γ; settings: read-out: PI3K γ IC50
# PI3K δ = PI3K δ (Homo sapiens (Human), UniProt O00329); assay: PI 3-Kinase (human) HTRF assay, p110δ/p85α
# PI3K α = PI3K α (Homo sapiens (Human), UniProt P42336); assay: PI 3-Kinase (human) HTRF assay, p110α/p85α
# Chain of PI3K α (P42336 whole entry): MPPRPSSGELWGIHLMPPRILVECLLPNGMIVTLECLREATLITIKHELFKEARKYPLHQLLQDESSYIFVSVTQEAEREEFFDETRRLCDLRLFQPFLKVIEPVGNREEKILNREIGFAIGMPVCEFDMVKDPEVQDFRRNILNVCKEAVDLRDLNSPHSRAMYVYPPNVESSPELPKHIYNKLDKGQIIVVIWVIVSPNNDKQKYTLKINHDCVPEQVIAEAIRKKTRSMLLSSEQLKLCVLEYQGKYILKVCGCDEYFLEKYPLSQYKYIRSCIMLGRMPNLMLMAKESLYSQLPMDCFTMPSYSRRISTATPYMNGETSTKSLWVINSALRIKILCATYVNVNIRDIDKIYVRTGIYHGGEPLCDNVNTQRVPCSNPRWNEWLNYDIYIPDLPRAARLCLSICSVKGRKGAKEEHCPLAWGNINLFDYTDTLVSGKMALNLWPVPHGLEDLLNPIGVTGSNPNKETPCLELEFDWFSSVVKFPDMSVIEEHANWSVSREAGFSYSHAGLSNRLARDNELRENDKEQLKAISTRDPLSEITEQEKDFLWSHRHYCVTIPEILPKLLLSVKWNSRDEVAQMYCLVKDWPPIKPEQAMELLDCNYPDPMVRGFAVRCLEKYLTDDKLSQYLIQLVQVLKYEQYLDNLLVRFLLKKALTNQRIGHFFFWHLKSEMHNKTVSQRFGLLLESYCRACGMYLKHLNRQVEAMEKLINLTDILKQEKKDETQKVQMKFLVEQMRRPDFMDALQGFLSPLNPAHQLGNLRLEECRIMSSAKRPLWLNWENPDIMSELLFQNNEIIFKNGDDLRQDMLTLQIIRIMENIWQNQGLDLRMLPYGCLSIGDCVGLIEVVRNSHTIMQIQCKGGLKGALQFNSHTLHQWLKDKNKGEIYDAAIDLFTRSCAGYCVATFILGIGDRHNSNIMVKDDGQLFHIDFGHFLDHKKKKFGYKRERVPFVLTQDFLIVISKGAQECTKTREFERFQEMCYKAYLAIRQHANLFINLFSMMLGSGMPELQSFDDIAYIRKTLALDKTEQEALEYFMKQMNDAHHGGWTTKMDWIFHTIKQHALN
# Chain of PI3K α (P27986 whole entry partner): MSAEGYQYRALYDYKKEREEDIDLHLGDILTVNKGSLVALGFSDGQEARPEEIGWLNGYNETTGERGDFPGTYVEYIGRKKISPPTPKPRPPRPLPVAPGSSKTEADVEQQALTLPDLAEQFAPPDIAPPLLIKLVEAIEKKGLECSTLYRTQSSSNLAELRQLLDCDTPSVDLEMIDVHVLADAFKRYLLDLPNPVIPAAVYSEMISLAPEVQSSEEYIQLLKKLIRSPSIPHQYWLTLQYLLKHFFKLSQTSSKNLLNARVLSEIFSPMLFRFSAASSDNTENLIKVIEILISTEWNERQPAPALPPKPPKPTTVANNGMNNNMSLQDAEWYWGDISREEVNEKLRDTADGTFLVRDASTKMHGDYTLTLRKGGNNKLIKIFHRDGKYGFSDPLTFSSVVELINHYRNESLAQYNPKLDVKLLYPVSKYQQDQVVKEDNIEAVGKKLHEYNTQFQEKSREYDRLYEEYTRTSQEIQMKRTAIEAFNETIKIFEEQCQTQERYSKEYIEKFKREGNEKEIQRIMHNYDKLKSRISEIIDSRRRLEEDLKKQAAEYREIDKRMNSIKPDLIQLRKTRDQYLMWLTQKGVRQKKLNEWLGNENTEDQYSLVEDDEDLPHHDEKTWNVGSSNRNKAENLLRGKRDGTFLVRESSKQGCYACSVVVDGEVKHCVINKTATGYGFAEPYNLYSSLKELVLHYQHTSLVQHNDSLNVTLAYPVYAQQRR
# PI3K β = PI3K β (Homo sapiens (Human), UniProt P42338); assay: PI 3-Kinase (human) HTRF assay, p110β/p85α
# Chain of PI3K β (P42338 whole entry): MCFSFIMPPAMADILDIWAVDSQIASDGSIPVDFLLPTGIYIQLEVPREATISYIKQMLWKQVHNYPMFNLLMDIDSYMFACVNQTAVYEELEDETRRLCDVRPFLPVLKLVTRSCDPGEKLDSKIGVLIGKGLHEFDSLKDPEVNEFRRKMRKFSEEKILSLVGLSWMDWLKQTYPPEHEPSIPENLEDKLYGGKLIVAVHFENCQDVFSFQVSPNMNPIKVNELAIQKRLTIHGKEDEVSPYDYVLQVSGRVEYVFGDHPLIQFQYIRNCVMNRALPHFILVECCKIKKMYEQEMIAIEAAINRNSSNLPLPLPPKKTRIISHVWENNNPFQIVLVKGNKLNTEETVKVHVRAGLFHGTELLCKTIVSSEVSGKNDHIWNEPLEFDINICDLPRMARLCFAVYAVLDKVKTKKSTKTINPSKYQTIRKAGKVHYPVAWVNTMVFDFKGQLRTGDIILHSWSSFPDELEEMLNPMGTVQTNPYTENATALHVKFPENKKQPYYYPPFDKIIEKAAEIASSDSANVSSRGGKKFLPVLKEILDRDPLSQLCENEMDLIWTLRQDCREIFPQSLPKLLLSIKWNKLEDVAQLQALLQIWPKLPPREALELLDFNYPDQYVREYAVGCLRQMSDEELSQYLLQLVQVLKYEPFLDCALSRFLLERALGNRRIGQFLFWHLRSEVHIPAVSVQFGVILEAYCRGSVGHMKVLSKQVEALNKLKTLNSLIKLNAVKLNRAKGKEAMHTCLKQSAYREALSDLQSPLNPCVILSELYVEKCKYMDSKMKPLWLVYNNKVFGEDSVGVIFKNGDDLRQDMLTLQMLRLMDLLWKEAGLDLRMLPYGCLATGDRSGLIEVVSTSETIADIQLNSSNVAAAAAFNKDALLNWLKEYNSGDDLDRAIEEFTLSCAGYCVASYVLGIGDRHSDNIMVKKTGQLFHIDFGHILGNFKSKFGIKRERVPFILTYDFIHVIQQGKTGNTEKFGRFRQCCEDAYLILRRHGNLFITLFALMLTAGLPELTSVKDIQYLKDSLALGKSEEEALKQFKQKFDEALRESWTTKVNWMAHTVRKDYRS
# Chain of PI3K β (P27986 whole entry partner): as the sequence (P27986 whole entry partner) above
# Chain of PI3K γ (P48736 whole entry): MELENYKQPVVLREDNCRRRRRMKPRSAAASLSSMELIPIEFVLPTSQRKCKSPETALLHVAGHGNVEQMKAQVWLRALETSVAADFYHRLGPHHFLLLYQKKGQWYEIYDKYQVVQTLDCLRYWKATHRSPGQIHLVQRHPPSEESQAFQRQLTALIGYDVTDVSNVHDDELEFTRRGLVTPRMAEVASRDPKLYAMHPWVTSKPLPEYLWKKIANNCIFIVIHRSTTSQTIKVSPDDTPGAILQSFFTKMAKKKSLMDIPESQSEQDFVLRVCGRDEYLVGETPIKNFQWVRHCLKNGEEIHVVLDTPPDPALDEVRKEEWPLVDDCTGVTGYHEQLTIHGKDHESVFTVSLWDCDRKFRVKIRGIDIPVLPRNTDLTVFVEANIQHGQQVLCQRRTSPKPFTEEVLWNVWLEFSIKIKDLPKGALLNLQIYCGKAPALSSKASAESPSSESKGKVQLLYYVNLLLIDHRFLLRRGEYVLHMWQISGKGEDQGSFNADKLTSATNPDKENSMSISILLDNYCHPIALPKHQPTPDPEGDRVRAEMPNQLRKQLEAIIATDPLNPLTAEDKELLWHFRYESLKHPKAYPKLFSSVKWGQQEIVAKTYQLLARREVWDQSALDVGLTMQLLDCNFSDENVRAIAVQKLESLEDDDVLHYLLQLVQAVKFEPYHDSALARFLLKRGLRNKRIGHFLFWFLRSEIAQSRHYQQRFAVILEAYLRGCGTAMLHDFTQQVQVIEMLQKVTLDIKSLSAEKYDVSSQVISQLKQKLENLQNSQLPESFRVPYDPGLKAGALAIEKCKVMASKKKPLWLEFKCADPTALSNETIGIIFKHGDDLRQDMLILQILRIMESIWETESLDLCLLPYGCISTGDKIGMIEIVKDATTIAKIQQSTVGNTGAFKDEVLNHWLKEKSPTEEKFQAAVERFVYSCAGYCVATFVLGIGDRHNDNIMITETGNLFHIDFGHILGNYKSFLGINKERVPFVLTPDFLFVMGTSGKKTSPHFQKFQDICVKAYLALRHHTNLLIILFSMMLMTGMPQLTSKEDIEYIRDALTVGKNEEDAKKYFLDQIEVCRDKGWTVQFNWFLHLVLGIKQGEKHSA
# Chain of PI3K δ (O00329 whole entry): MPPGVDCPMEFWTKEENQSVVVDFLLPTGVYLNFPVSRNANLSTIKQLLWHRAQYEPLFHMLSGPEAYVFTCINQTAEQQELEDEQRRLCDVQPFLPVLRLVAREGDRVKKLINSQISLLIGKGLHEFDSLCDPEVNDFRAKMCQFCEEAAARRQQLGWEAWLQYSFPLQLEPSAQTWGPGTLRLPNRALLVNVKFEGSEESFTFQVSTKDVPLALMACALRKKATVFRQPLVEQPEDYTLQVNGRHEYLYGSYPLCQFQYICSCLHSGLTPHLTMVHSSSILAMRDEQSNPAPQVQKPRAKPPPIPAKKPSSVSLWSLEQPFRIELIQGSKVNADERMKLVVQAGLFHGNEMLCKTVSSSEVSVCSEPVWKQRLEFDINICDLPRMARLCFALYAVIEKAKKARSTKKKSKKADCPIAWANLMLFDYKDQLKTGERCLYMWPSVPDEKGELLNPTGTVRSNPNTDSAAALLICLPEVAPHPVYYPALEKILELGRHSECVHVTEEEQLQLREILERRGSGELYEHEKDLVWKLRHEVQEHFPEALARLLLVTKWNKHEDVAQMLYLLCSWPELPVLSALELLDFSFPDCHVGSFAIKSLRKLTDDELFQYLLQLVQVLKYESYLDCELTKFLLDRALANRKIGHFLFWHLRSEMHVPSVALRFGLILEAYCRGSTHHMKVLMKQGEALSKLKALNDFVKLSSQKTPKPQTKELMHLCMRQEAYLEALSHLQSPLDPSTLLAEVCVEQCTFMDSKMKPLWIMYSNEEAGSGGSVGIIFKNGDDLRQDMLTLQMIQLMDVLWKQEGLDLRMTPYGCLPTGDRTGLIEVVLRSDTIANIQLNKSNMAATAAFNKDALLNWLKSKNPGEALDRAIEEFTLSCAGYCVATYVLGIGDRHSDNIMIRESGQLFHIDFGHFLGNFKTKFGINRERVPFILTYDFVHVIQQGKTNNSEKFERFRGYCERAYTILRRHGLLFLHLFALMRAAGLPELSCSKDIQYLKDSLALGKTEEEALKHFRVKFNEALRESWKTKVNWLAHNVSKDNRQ
# Chain of PI3K δ (P27986 whole entry partner): as the sequence (P27986 whole entry partner) above
IC50 (PI3K γ) [µM],IC50 (PI3K δ) [µM],IC50 (PI3K α) [µM],IC50 (PI3K β) [µM],SMILES
> 10,> 10,< 10,> 10,Nc1nc2cc(-c3ccc4ncc(N5CCOCC5)n4c3)ccc2o1 [Compound 53]
< 1,< 10,< 0.1,< 10,C[C@@H](N)C(=O)N1CCN(c2cnc3ccc(-c4ccc5oc(N)nc5c4)nc3n2)CC1
< 10,< 10,< 1,< 10,Nc1nc2cc(-c3ccc4ncc(C(=O)N5CCC(N6CCOCC6)CC5)n4c3)ccc2o1
< 0.1,< 1,< 0.1,< 1,Nc1nc2cc(-c3ccc4ncc(-c5cn[nH]c5)nc4c3)ccc2o1
< 0.1,< 0.1,< 0.1,< 1,CS(=O)(=O)N1CCC(Nc2ncnc3ccc(-c4ccc5oc(N)nc5c4)cc23)CC1
< 10,> 10,< 10,> 10,CC(C)(N)C(=O)N1CCN(c2ccc3ncc(-c4ccc5oc(N)nc5c4)cc3n2)CC1
> 10,> 10,> 10,> 10,Cc1nc2ccc(-c3ccc4oc(N)nc4c3)cn2c1C(=O)N1CCN(C)CC1
< 0.1,< 0.1,< 0.1,< 10,Nc1nc2cc(-c3ccc4ncc(C(=O)NC5CCOCC5)n4c3)ccc2o1
> 10,> 10,< 10,> 10,CN1CCN(C(=O)c2cnc3cnc(-c4ccc5oc(N)nc5c4)cn23)CC1
< 10,> 10,< 0.1,> 10,Nc1nc2cc(-c3ccc4ncc(N5CCCCC5)nc4c3)ccc2o1
< 10,> 10,< 0.1,> 10,Nc1nc2cc(-c3ccc4ncc(C(=O)N5CCN(CCO)CC5)n4c3)ccc2o1
< 0.1,< 0.1,< 0.1,< 1,Nc1nc2cc(-c3ccc4ncnc(NC5CCOCC5)c4c3)ccc2o1 [Compound 24]
< 0.1,> 10,< 0.1,< 1,Nc1nc2cc(-c3ccc4ncc(N5CCOCC5)nc4n3)ccc2o1
< 1,< 10,< 0.1,< 1,CS(=O)(=O)CCN1CCN(c2cnc3ccc(-c4ccc5oc(N)nc5c4)cc3n2)CC1
< 0.1,< 10,< 0.1,< 1,COC(=O)N1CCN(c2cnc3ccc(-c4ccc5oc(N)nc5c4)cc3n2)CC1
< 10,> 10,< 10,> 10,Nc1nc2cc(-c3c[nH]c4nccc(-c5ccncc5)c34)ccc2o1 [Compound 25]
< 1,> 10,< 0.1,< 1,Nc1nc2ccc(-c3ccc4ncc(N5CCOCC5)nc4c3)cc2o1
> 10,> 10,< 10,> 10,Nc1nc2cc(-c3ccc4ncc(C(=O)N5CCOCC5)nc4c3)ccc2o1
< 10,< 10,< 0.1,< 10,CC(C)(C)N1CCN(C(=O)c2cnc3ccc(-c4ccc5oc(N)nc5c4)cn23)CC1
< 0.1,< 0.1,< 0.1,< 0.1,C[C@H](N)C(=O)N1CCN(c2cnc3ccc(-c4ccc5oc(N)nc5c4)nc3n2)CC1
> 10,> 10,< 1,> 10,Nc1nc2cc(-c3ccc4ncc(-c5ccnc(N6CCOCC6)c5)nc4c3)ccc2o1
< 10,> 10,< 1,> 10,C[C@@H]1CN(c2cnc3ccc(-c4ccc5oc(N)nc5c4)cc3n2)C[C@H](C)O1

SMILES,IC50 (PI3K γ) [µM],IC50 (PI3K δ) [µM],IC50 (PI3K α) [µM],IC50 (PI3K β) [µM]
Nc1nc2cc(-c3ccc4ncc(N5CC(N6C7CCC6COC7)C5)nc4n3)ccc2o1,> 10,> 10,< 10,> 10
